Measurements reported in patent US9370541B2, “Extract of the above-ground portions of gynandropsis gynandra or cleome gynandra, and cosmetic, dermatological or pharmaceutical compositions including same” (LABORATOIRES EXPANSCIENCE, priority 2010, dated 2016).

Legend:
[1] = system: Cells of the Jurkat cell line; experiment: UV-induced lipid peroxidation (flow cytometry); type: cell-based; settings: 100 μM BHT; UVA+B irradiation
Procedure: Cells of the Jurkat cell line were preincubated for 45 minutes in the presence of the extract of Gynandropsis gynandra (GG) at a concentration of 0.02% (w/v of active material) or 100 μM of BHT (reference) and in the presence of the fluorescent probe 011-fluorine, specific for lipid peroxidation.
The cells were then irradiated by UVA+B and then incubated for 30 minutes in the presence of GG or BHT.
At the end of incubation, the quantity of lipid peroxides was evaluated by a flow cytometry analysis of fluorescence intensity (inversely proportional to oxidation).
(§1) The results were analyzed statistically by a Student's t-test.

[2] = system: Normal human epidermal melanocytes; experiment: Melanin production by melanocytes; type: cell-based; settings: 10^−7 M NDP-MSH alone (stimulated control); 240 hours
Procedure: After incubation, melanin was extracted from the cells and was quantified by spectrophotometry.
as §1

[3] = system: Normal human keratinocytes; experiment: Keratinocyte migration after artificial wound; type: cell-based; settings: 10 ng/ml of EGF
Procedure: An artificial wound was prepared on a monolayer of normal human keratinocytes.
At 0, 24, 48 and 72 hours, keratinocyte migration was monitored by microphotography and was quantified by measuring the surface area of the wound.
as §1

Mastocytes = experiment: Release of histamine by mastocytes stimulated by substance P, ELISA; type: cell-based; settings: 10 nM Calcium; 10 μM substance P, 15 minutes
Procedure: Mastocytes were preincubated for 30 minutes in the presence of the extract of Gynandropsis gynandra (GG) at a concentration of 0.08% (w/v of active material) or 10 Mm of calcium (reference inhibitor of histamine release).
The mastocytes were then stimulated with 10 μM of substance P for 15 minutes. At the end of incubation, the histamine released was quantified by ELISA.
as §1

prostaglandin E2 (PGE2) = experiment: Production of PGE2 by PMA-stimulated keratinocytes (NCTC-2544), ELISA; type: cell-based, Human; settings: 10^−6 M Indomethacin, 0.1 μg/ml PMA 24 hours
Normal human adipocytes = experiment: Lipogenesis in adipocytes ([14C]-acetate incorporation); type: cell-based; settings: 20 μM of cerulenin
Procedure: Normal human adipocytes were incubated for 1 hour in the presence of the extract of Gynandropsis gynandra (GG) at a concentration of 0.02% (w/v of active material) or the reference (20 μM of cerulenin). After incubation, the radioactive label [^14C]-acetate was added and the samples were incubated overnight.
At the end of incubation, the lipids were extracted and the radioactivity incorporated (corresponding to the lipogenesis) was measured by liquid scintillation.
as §1

[4] = system: Normal human keratinocytes; experiment: Production of ROS in keratinocytes treated with H2O2 (H2DCF-DA probe); type: cell-based; settings: 10 μg/ml vitamin C, 24 hours, 100 μM H2O2, 20 minutes
Procedure: The keratinocytes were then stimulated with 100 μM of hydrogen peroxide (H2O2) for 20 minutes. The production of reactive oxygen species (ROS) was evaluated by measuring fluorescence. The results were analyzed statistically by a Student's t-test.

interleukin 8 (IL8) = experiment: Production of IL8 by PMA-stimulated keratinocytes (NCTC-2544), ELISA; type: cell-based, Human; settings: 10^−7 M Dexamethasone, 0.1 μg/ml PMA 24 hours
Procedure: At the end of the treatment, the quantities of interleukin 8 (IL8) and prostaglandin E2 (PGE2) secreted were measured by ELISA in the culture supernatants. The results were analyzed statistically by a Student's t-test.

Cc1cc(C(C)(C)C)c(O)c(C(C)(C)C)c1 [BHT]
Lipid peroxides (% of irradiated control) [1]: 64 % of irradiated control
Protection (%) [1]: 49% p < 0.01

NDP-MSH
Melanin (μl/ml) [2]: 27.1 ± 0.9 μl/ml
Stimulation of melanin production [2]: +108% p < 0.001

EGF
Migration area (percent of wound covered) ([3]; 48 h): 99 (p < 0.001) percent of wound covered
Migration area (percent of wound covered) ([3]; 72 h): 100 (p < 0.001) percent of wound covered

[Ca+2] [Calcium, calcium]
Histamine (Mastocytes): 21.8 ± 1.0 ng/mL
Inhibition of histamine release (Mastocytes): −85% p < 0.01

COc1ccc2c(c1)c(CC(=O)O)c(C)n2C(=O)c1ccc(Cl)cc1 [Indomethacin, indomethacin]
PGE2 (prostaglandin E2 (PGE2)): 0.039 ± 0.0 ng/mL
inhibition at 1 µM (prostaglandin E2 (PGE2); Homo sapiens, NCTC-2544): 100%

C/C=C/C/C=C/CCC(=O)[C@H]1O[C@H]1C(N)=O [cerulenin]
Incorporation of acetate (cpm) (Normal human adipocytes): 14934 ± 671 cpm
inhibition at 20 µM (Normal human adipocytes; Homo sapiens, Adipocyte): 55%

O=C1O[C@H]([C@@H](O)CO)C(O)=C1O [vitamin C]
ROS (fluorescence units) [4]: 992.83 ± 93.96 fluorescence units
inhibition at 10 µg/mL ([4]; Homo sapiens, Keratinocyte): 33%

C[C@@H]1C[C@H]2[C@@H]3CCC4=CC(=O)C=C[C@]4(C)[C@@]3(F)[C@@H](O)C[C@]2(C)[C@@]1(O)C(=O)CO [Dexamethasone, dexamethasone]
IL8 (interleukin 8 (IL8)): 7.4 ± 0.8 ng/mL
inhibition at 0.1 µM (interleukin 8 (IL8); Homo sapiens, NCTC-2544): 85%
